From paper PMC11316798, “Signaling by a bacterial phytochrome histidine kinase involves a conformational cascade reorganizing the dimeric photoreceptor” (Nature Communications, 2024)

T1: PsBphP1 (Pseudomonas syringae group genomosp. 3, UniProt Q885D3)
T1 construct: gene bphP
T1 sequence (Q885D3 1-745): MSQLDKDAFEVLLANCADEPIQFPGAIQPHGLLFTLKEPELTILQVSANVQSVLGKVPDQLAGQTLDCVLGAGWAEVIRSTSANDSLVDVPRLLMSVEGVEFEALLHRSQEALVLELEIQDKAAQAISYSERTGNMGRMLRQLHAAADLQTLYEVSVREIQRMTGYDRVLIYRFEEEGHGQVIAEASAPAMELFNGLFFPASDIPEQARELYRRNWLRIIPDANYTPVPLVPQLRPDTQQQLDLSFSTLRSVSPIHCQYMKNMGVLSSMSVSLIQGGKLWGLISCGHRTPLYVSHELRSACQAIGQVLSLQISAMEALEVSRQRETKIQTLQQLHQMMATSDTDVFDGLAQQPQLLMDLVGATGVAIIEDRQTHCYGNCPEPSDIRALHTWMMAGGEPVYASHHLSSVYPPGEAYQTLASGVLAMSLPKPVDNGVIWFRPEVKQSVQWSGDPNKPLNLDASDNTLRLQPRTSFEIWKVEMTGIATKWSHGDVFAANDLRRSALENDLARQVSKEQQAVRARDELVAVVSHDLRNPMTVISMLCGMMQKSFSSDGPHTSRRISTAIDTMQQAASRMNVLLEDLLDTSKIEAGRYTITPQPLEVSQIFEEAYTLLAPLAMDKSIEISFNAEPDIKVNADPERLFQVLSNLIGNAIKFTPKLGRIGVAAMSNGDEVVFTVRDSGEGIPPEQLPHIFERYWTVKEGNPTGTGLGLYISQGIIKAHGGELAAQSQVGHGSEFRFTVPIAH

B1: Pseudomonas syringae bacteriophytochrome photoreceptor BphP1 (PsBphP1), full length, assembled with biliverdin (natural protein)
chain: GMSQLDKDAFEVLLANCADEPIQFPGAIQPHGLLFTLKEPELTILQVSANVQSVLGKVPDQLAGQTLDCVLGAGWAEVIRSTSANDSLVDVPRLLMSVEGVEFEALLHRSQEALVLELEIQDKAAQAISYSERTGNMGRMLRQLHAAADLQTLYEVSVREIQRMTGYDRVLIYRFEEEGHGQVIAEASAPAMELFNGLFFPASDIPEQARELYRRNWLRIIPDANYTPVPLVPQLRPDTQQQLDLSFSTLRSVSPIHCQYMKNMGVLSSMSVSLIQGGKLWGLISCGHRTPLYVSHELRSACQAIGQVLSLQISAMEALEVSRQRETKIQTLQQLHQMMATSDTDVFDGLAQQPQLLMDLVGATGVAIIEDRQTHCYGNCPEPSDIRALHTWMMAGGEPVYASHHLSSVYPPGEAYQTLASGVLAMSLPKPVDNGVIWFRPEVKQSVQWSGDPNKPLNLDASDNTLRLQPRTSFEIWKVEMTGIATKWSHGDVFAANDLRRSALENDLARQVSKEQQAVRARDELVAVVSHDLRNPMTVISMLCGMMQKSFSSDGPHTSRRISTAIDTMQQAASRMNVLLEDLLDTSKIEAGRYTITPQPLEVSQIFEEAYTLLAPLAMDKSIEISFNAEPDIKVNADPERLFQVLSNLIGNAIKFTPKLGRIGVAAMSNGDEVVFTVRDSGEGIPPEQLPHIFERYWTVKEGNPTGTGLGLYISQGIIKAHGGELAAQSQVGHGSEFRFTVPIAH
modifications: biliverdin (BV) covalently linked via a thioether linkage to Cys16
notes: PsBphP1, bacteriophytochrome histidine kinase of Pseudomonas syringae, full-length polypeptide, residues 1-745; One molecule for both light states: Pr (dark-adapted) and Pfr (red-light irradiated, ~80% Pfr); the state is named in each assay; Dimer as Pr; dimer-tetramer (dimer-of-dimers) equilibrium as Pfr; also called P. syringae BphP1; P. syringae BphP; not shown: His6, N-terminal, cleaved

Experiments:
[1] = molecular target: T2, PsAlgB (mixed with PsBphP1) (Pseudomonas syringae group genomosp. 3, UniProt Q88AQ2); conditions: 1.5 mM ATP, 5 mM MgCl2, pH 7.5, 22 °C, 175 mM KSCN; needs PsBphP1 (Pr or Pfr); authors presume the ATPase is intrinsic to PsAlgB
T2 construct: gene algB
T2 sequence (Q88AQ2 whole entry, one chain of several): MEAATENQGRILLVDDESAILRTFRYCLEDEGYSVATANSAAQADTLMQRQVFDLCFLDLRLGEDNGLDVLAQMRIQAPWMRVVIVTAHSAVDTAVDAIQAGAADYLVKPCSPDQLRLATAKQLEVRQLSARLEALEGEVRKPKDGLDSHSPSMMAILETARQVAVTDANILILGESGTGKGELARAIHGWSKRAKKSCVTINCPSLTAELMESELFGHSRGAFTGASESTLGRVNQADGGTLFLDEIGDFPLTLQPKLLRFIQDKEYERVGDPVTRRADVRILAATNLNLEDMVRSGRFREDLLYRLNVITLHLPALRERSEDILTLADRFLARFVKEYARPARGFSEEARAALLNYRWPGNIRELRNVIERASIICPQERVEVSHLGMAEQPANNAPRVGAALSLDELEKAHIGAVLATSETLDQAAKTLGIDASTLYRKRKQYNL

PsBphP1 = molecular target: T1, PsBphP1; conditions: labelled compound; Pfr under red light; 150 uM ATP, 5 mM MgCl2, pH 7.5, 22 °C; phosphoacceptor His530
[2] = molecular target: the molecule itself; assay: cryo-EM structure; PsBphP1 as Pr (dark-adapted), 0.5 mg/mL, 175 mM KSCN, 10 mM 2-mercaptoethanol, 10 mM HEPES-NaOH pH 7.5; head-to-head dimer
[3] = molecular target: the molecule itself; assay: cryo-EM structure; PsBphP1 as Pfr (irradiated 10 min with 630-nm LED), 0.5 mg/mL, 175 mM KSCN, 10 mM 2-mercaptoethanol, 10 mM HEPES-NaOH pH 7.5; dimers (medial, splayed) and tetrameric dimer-of-dimers

Molecule	SEC elution shift of ATP to ADP [1]	autophosphorylation with 32P-ATP, SDS-PAGE and phosphorimaging (PsBphP1)	stoichiometry N [2]	stoichiometry N [3]
Nc1ncnc2c1ncn2[C@@H]1O[C@H](COP(=O)(O)OP(=O)(O)OP(=O)(O)O)[C@@H](O)[C@H]1O [ATP]	the two proteins together elicited robust ATPase activity for PsAlgB	initial autophosphorylation of PsBphP1 required the predicted internal phosphoacceptor His530		
B1			2	4
